In article PMC6235670, “An mTOR Signaling Modulator Suppressed Heterotopic Ossification of Fibrodysplasia Ossificans Progressiva” (Stem Cell Reports, 2018):

Legend:
[1] = test system: ATDC5/FOP-ACVR1 cells; experiment: ALP assay (HTS and dose-response) in ATDC5/FOP-ACVR1; type: cell-based, mouse; conditions: Mus musculus, same protocol as HTS (72 h)
[2] = test system: NOD/SCID mice transplanted with FOP-iMSCs
Source text: (§1) MTOR s604 […]tt […]at […]
For X- ray images, mice were anesthetized with isoflurane (5% for induction, 2-3% for maintenance, Abbvie), immobilized and X-rayed using µFX-1000 (Fujifilm) or DX-50 (Faxitron Bioptics). µCT images were scanned using X-ray CT systems (inspeXio SMX-100CT, Shimadzu) and analyzed with TRI/3D-BON software (Ratoc System Engineering) according to the manufacturer's instructions. […]
Activin-A-induced HO model transplanted with FOP-iMSCs. FOP- (right leg) and resFOP-iMSCs (left leg) (4 x 10^6 cells, respectively) were transplanted into the gastrocnemius muscle of NOD/ShiJic-scid Jcl (NOD/SCID) mice (8 weeks, male, CLEA Japan) with C3H -DoxOn-hINHBA (5 x 10^5 cells), which can continuously expose Activin-A to the transplanted iMSCs in vivo ( Hino et al., 2015) . In the Dox-induced group, 1 mg/mL Dox (Sigma-Aldrich) was administered via drinking water with 10 mg/mL sucrose (Nacalai Tesque) for two weeks after transplantation. Compounds were intraperitoneally administered once a day, five times a week. Eight weeks after transplantation, the transplanted cells were harvested , fixed with 4% paraformaldehyde for 24 h, embedded in paraffin, and sectioned and stained with HE, von Kossa, Safranin O, human specific anti-Vimentin antibody and Collagen I antibody as previously described (Hino et al., 2015; Umeda et al., 2012; […]

[3] = test system: C57BL/6 mice; experiment: Growth plate histology and normal bone µCT in compound-administered BMP-7-injected mice; conditions: 5 mg/kg i.p., 2 weeks
Experimental: as §1
System Engineering) according to the manufacturer's instructions. […]
BMP-7-induced HO model mice. BMP -7 (2 µ g/mouse) was injected into the right gastrocnemius muscle of C57BL/6NJcl mice (6-8 weeks, male, CLEA Japan), and compounds were administered once a day, five times a week (intraperitoneal administration). Mice were analyzed 2 weeks after injection. […]
Histological analysis of growth plates chondrocytes. Knee joints were obtained from BMP-7-injected and test compounds-administrated C57BL/6NJcl mice after 2 weeks treatment and fixed, paraffin-embedded, and sectioned and stained with Safranin O. The thickness of the proliferative and hypertrophic zones of the growth plate were measured using ImageJ software on images obtained using a Keyence microscope (Keyence A merica). The proliferative zone was defined as the region with flat chondrocytes stacked in longitudinal columns, and the hypertrophic zone as the region where chondrocytes are enlarged in size and form clusters.
Normal bone µCT. The left legs of mice were obtained from BMP -7-injected and test -compounds administrated C57BL/6NJcl mice after 2 weeks treatment. The region of interest (ROI) included the femur- tibia (entire femur in addition to the part of tibia above tibia/fibular junction). […]
Tests of side effects of direct and indirect mTOR inhibitors. Related

[4] = test system: healthy control iPSC (414C2)-derived iMSCs; experiment: Wound healing assay
[5] = test system: FOP-iMSCs; experiment: Microarray / pathway analysis of activin A-induced chondrogenesis of FOP-iMSCs; type: cell-based, human; conditions: 100 nM, activin A, 7 days
Experimental: Microarray experiments. 2D chondrogenic induction was performed in FOP-iMSCs stimulated with or without 100 ng/mL Activin-A, TAK 165, CP-724714 and Lapatinib. Seven days after incubation, mRNA was extracted. RNA was reverse transcribed, biotin-labeled and hybridized to GeneChip Human Gene 1.0 ST Expression Array, which was subsequently washed and scanned according to the manufacturer’s instructions (Affymetrix). Raw CEL files were imported into GeneSpring GX 12.6.1 software (Agilent Technologies), and expression values were calculated with the RMA16 algorithm. Pathway analysis was performed by Ingenuity pathway analysis (Qiagen). […]

[6] = test system: BMP signaling (BRE-Luc); experiment: BRE-Luc reporter assay in FOP-iMSCs; type: cell-based, human; conditions: activin A and compounds for 16 hr
Experimental: FOP-iMSCs transiently transfected with BRE-Luc (A) or CAGA-Luc (B) with CMV-Renilla were stimulated with activin A and compounds for 16 hr (A) or 3 hr (B). […] One day after siRNA transfection, chondrogenic induction with activin A was initiated, and after 7 days the cells were harvested. […] FOP-iMSCs cultured with 10% FBS were treated with 100 nM rapamycin (Rapa) or TAK 165 (TAK) for 2 hr, and the cells were harvested. […] 1 μM TAK, 1 μM CP (CP-724714, another selective ERBB2 inhibitor), or 10 nM Rapa were applied in the experiments.

FC(F)(F)c1ccc(/C=C/c2nc(COc3ccc(CCCCn4ccnn4)cc3)co2)cc1 [TAK 165, mubritinib]
IC50 [1]: 39 nM | anti-human-specific vimentin-positive cells (survival of transplanted cells) ([2]; 5 mg/kg i.p.): large number | body weight change compared with vehicle group ([2]; 5 mg/kg i.p.): No significant differences | hypertrophic chondrocytes and von Kossa- and COL1-positive bone regions ([2]; 5 mg/kg i.p.): fewer | HO derived from FOP-iMSCs (heterotopic bone volume) ([2]; 5 mg/kg i.p. once daily, five times a week, 8 weeks after transplantation): significantly suppressed | Bone Mineral Density (normal bone µCT) vs vehicle [3]: n.s. | Bone volume (normal bone µCT, femur-tibia) vs vehicle [3]: n.s. | Hypertrophic zone thickness of growth plate vs vehicle [3]: n.s. | Proliferative zone thickness of growth plate vs vehicle [3]: n.s. | chondrogenesis of normal chondrocytes (growth plate) [3]: did not impair | normal skeletal development in vivo [3]: did not impair | Relative cell migration (wound healing assay) vs DMSO ([4]; 10 nM rapamycin or 1 µM TAK165, 24 h): n.s. | wound healing in vitro ([4]; 1 µM, 24 h): did not impair | transcriptome: genes involved in chondrogenesis or osteogenesis [5]: affected genes that are involved in chondrogenesis or osteogenesis | BRE-Luc (BMP-specific luciferase reporter) [6]: did not affect
